“And” between values parts separate entries of the source, which are not always exact repeats. Identical values can stand only once.
Experiments:
P388 [1] = assay: animal or person; conditions: Mus musculus
Description: In vivo antitumor activity in mice bearing P388 leukemia cells at an optimal dose of 65 mg/kg given on days 1,5,9.

P388 [2] = assay: animal or person; conditions: Mus musculus; remark: listed apart in the source
Description: In vivo antitumor activity in mice bearing P388 leukemia cells at an optimal dose of 13.3 mg/kg given on days 1,5,9.

L1210 = assay: cells; conditions: Mus musculus, L1210, 72 h, read-out: ID50
Description: In vitro concentration required to reduce the murine L1210 leukemia cells in cultures to 50% after a period of 72 hr.

physchem = conditions: Intestine
Description: Compound was evaluated for its rate of absorption from the intestine and pKa value was determined, lower value indicate high absorption from gastrointestinal tract.

P388 [3] = assay: animal or person; conditions: Mus musculus; remark: listed apart in the source
Description: In vivo antitumor activity in mice bearing P388 leukemia cells at an optimal dose of 100 mg/kg given on days 1,5,9.

P388 [4] = assay: animal or person; conditions: Mus musculus; remark: listed apart in the source
Description: In vivo antitumor activity in mice bearing P388 leukemia cells at an optimal dose of 20 mg/kg given on days 1,5,9.

P388 [5] = assay: animal or person; conditions: Mus musculus; remark: listed apart in the source
Description: In vivo antitumor activity in mice bearing P388 leukemia cells at an optimal dose of 20 mg/kg given on days 1,5,9

P388 [6] = assay: animal or person; conditions: Mus musculus; remark: listed apart in the source
Description: In vivo antitumor activity in mice bearing P388 leukemia cells at an optimal dose of 50 mg/kg given on days 1,5,9

P388 [7] = assay: animal or person; conditions: Mus musculus; remark: listed apart in the source
Description: In vivo antitumor activity in mice bearing P388 leukemia cells at an optimal dose of 65 mg/kg given on days 1,5,9

P388 [8] = assay: animal or person; conditions: Mus musculus; remark: listed apart in the source
Description: In vivo antitumor activity in mice bearing P388 leukemia cells at an optimal dose of 45 mg/kg given on days 1,5,9.

P388 [9] = assay: animal or person; conditions: Mus musculus; remark: listed apart in the source
Description: In vivo antitumor activity in mice bearing P388 leukemia cells at an optimal dose of 45 mg/kg given on days 1,5,9

P388 [10] = assay: animal or person; conditions: Mus musculus; remark: listed apart in the source
Description: In vivo antitumor activity in mice bearing P388 leukemia cells at an optimal dose of 30 mg/kg given on days 1,5,9

P388 [11] = assay: animal or person; conditions: Mus musculus; remark: listed apart in the source
Description: In vivo antitumor activity in mice bearing P388 leukemia cells at an optimal dose of 30 mg/kg given on days 1,5,9.

P388 [12] = assay: animal or person; conditions: Mus musculus; remark: listed apart in the source
Description: In vivo antitumor activity in mice bearing P388 leukemia cells at an optimal dose of 100 mg/kg given on days 1,5,9

P388 [13] = assay: animal or person; conditions: Mus musculus; remark: listed apart in the source
Description: In vivo antitumor activity in mice bearing P388 leukemia cells at an optimal dose of 300 mg/kg given on days 1,5,9.

## COc1cc(NS(C)(=O)=O)ccc1Nc1c2ccccc2nc2ccccc12 [AMSACRINE]
Nucleic Acid
  Log K: 5.57 and 5.65
P388 [1]
  ILS at 65 mg/kg: 63%
P388 [2]
  ILS at 13.3 mg/kg: 78%

## CNC(=O)c1cccc2c(Nc3ccc(NS(C)(=O)=O)cc3OC)c3cccc(OC)c3nc12
Nucleic Acid
  Log K: 6.24 and 6.65
L1210
  IC50: 17 nM
physchem
  pKa: 6.55
P388 [3]
  ILS at 100 mg/kg: 34%
P388 [4]
  ILS at 20 mg/kg: 139%

## CNC(=O)c1cccc2c(Nc3ccc(NS(C)(=O)=O)cc3OC)c3cccc(C)c3nc12 [ASULACRINE]
physchem
  pKa: 6.4
P388 [5]
  ILS at 20 mg/kg: 200%
P388 [6]
  ILS at 50 mg/kg: 164%

## COc1cc(NS(C)(=O)=O)ccc1Nc1c2ccccc2nc2c(C)cccc12
Nucleic Acid
  Log K: 6.03 and 5.96
L1210
  IC50: 30 nM
P388 [7]
  ILS at 65 mg/kg: 47%
P388 [5]
  ILS at 20 mg/kg: 143%

## COc1cc(NS(C)(=O)=O)ccc1Nc1c2cccc(C)c2nc2c(C)cccc12
Nucleic Acid
  Log K: 6.14 and 6.46
L1210
  IC50: 110 nM
P388 [3]
  ILS at 100 mg/kg: 86%
P388 [8]
  ILS at 45 mg/kg: 135%

## COc1cc(NS(C)(=O)=O)ccc1Nc1c2cccc(OC)c2nc2c(OC)cccc12
Nucleic Acid
  Log K: 6.32 and 6.4
L1210
  IC50: 65 nM
P388 [3]
  ILS at 100 mg/kg: 48%
P388 [9]
  ILS at 45 mg/kg: 99%

## COc1cc(NS(C)(=O)=O)ccc1Nc1c2ccccc2nc2c(OC)cccc12
Nucleic Acid
  Log K: 5.94 and 6
L1210
  IC50: 40 nM
P388 [10]
  ILS at 30 mg/kg: 139%
P388 [8]
  ILS at 45 mg/kg: 23%

## COc1cc(NS(C)(=O)=O)ccc1Nc1c2ccccc2nc2c(C(N)=O)cccc12
L1210
  IC50: 270 nM
P388 [3]
  ILS at 100 mg/kg: 11%
P388 [11]
  ILS at 30 mg/kg: 113%

## COc1cc(NS(C)(=O)=O)ccc1Nc1c2cccc(C)c2nc2c(C(N)=O)cccc12
Nucleic Acid
  Log K: 6.62 and 6.92
L1210
  IC50: 47 nM
physchem
  pKa: 6.43
P388 [3]
  ILS at 100 mg/kg: 25%
P388 [5]
  ILS at 20 mg/kg: 113%

## CNC(=O)c1cccc2c(Nc3ccc(NS(C)(=O)=O)cc3OC)c3ccccc3nc12
L1210
  IC50: 270 nM
P388 [12]
  ILS at 100 mg/kg: 128%
P388 [13]
  ILS at 300 mg/kg: 127%

## COc1cc(NS(C)(=O)=O)ccc1Nc1c2cccc(C)c2nc2c(OC)cccc12
Nucleic Acid
  Log K: 6.21 and 6.19
L1210
  IC50: 30 nM
physchem
  pKa: 6.9
P388 [3]
  ILS at 100 mg/kg: 69%
P388 [10]
  ILS at 30 mg/kg: 109%

Reference: ChEMBL document CHEMBL1122588 (J Med Chem, 1984)
